According to ChEMBL document CHEMBL4152276, “Design, synthesis and biological evaluation of N-phenyl-(2,4-dihydroxypyrimidine-5-sulfonamido)benzoyl hydrazide derivatives as thymidylate synthase (TS) inhibitors and as potential antitumor drugs” (Eur J Med Chem, 2018):

Tested on: A549
Test: Antiproliferative activity against human A549 cells at 8 uM after 24 hrs by MTT assay relative to control
Type: functional
Details: not given

Structure (SMILES)	Activity [%]
Nc1nc2[nH]cc(CCc3ccc(C(=O)N[C@@H](CCC(=O)O)C(=O)O)cc3)c2c(=O)[nH]1 [PEMETREXED]	61.82

Tested on: A549
Test: Antiproliferative activity against human A549 cells at 0.512 uM after 24 hrs by MTT assay relative to control
Type: functional
Details: not given

Structure (SMILES)	Activity [%]
Nc1nc2[nH]cc(CCc3ccc(C(=O)N[C@@H](CCC(=O)O)C(=O)O)cc3)c2c(=O)[nH]1 [PEMETREXED]	22.93

Tested on: not listed separately
Test: Selectivity index, ratio of CC50 for human IOSE80 cells to IC50 for human A549 cells
Type: toxicity
Details: IOSE80 cells (CC50) versus A549 cells (IC50)

Structure (SMILES)	selectivity ratio
Nc1nc2[nH]cc(CCc3ccc(C(=O)N[C@@H](CCC(=O)O)C(=O)O)cc3)c2c(=O)[nH]1 [PEMETREXED]	3.59

Tested on: A549
Test: Antiproliferative activity against human A549 cells at 1.28 uM after 24 hrs by MTT assay relative to control
Type: functional
Details: not given

Structure (SMILES)	Activity [%]
Nc1nc2[nH]cc(CCc3ccc(C(=O)N[C@@H](CCC(=O)O)C(=O)O)cc3)c2c(=O)[nH]1 [PEMETREXED]	49.43

Tested on: OVCAR-3
Test: Antiproliferative activity against human OVCAR3 cells after 24 hrs by MTT assay
Type: functional, cell-based
Details: OVCAR-3, 24 h

Structure (SMILES)	IC50 [µM]
Cc1ccccc1C(=O)NNC(=O)c1ccc(NS(=O)(=O)c2cnc(O)nc2O)cc1	> 20
Cc1cccc(NNC(=O)c2ccc(NS(=O)(=O)c3cnc(O)nc3O)cc2)c1	> 20
Cc1ccc(C(=O)NNC(=O)c2ccc(NS(=O)(=O)c3cnc(O)nc3O)cc2)cc1	> 20
O=C(NNc1ccc(F)cc1)c1ccccc1NS(=O)(=O)c1cnc(O)nc1O	> 20
O=C(NNC(=O)c1cccc(NS(=O)(=O)c2cnc(O)nc2O)c1)c1ccc(F)cc1	> 20
Cc1cccc(NNC(=O)c2ccccc2NS(=O)(=O)c2cnc(O)nc2O)c1	> 20
O=C(NNC(=O)c1ccc(NS(=O)(=O)c2cnc(O)nc2O)cc1)c1ccc(F)cc1	> 20
O=C(NNc1ccccc1F)c1ccc(NS(=O)(=O)c2cnc(O)nc2O)cc1	> 20

The next compounds have a lower IC50 than those just listed; values first:

IC50 [µM]	Structure (SMILES)
5.22	O=C(NNC(=O)c1ccccc1Cl)c1ccc(NS(=O)(=O)c2cnc(O)nc2O)cc1
5.01	CCCCOc1ccc(C(=O)NNC(=O)c2ccccc2NS(=O)(=O)c2cnc(O)nc2O)cc1
10.8	O=C(NNC(=O)c1ccccc1F)c1cccc(NS(=O)(=O)c2cnc(O)nc2O)c1
12.9	Cc1ccc(C(=O)NNC(=O)c2ccccc2NS(=O)(=O)c2cnc(O)nc2O)cc1
7.71	O=C(NNC(=O)c1cccc(Cl)c1)c1ccc(NS(=O)(=O)c2cnc(O)nc2O)cc1
5.52	O=C(NNc1cccc(Cl)c1)c1ccccc1NS(=O)(=O)c1cnc(O)nc1O
7.23	O=C(NNc1ccccc1Cl)c1ccc(NS(=O)(=O)c2cnc(O)nc2O)cc1
9.2	CCCCOc1ccc(C(=O)NNC(=O)c2cccc(NS(=O)(=O)c3cnc(O)nc3O)c2)cc1
6.9	Nc1nc2[nH]cc(CCc3ccc(C(=O)N[C@@H](CCC(=O)O)C(=O)O)cc3)c2c(=O)[nH]1 [PEMETREXED]
14.1	O=C(NNc1ccccc1Cl)c1ccccc1NS(=O)(=O)c1cnc(O)nc1O
17	O=C(NNc1ccccc1F)c1cccc(NS(=O)(=O)c2cnc(O)nc2O)c1

Tested on: A549
Test: Antiproliferative activity against human A549 cells at 3.2 uM after 24 hrs by MTT assay relative to control
Type: functional
Details: not given

Structure (SMILES)	Activity [%]
Nc1nc2[nH]cc(CCc3ccc(C(=O)N[C@@H](CCC(=O)O)C(=O)O)cc3)c2c(=O)[nH]1 [PEMETREXED]	56.2

Tested on: not listed separately
Test: Selectivity index, ratio of CC50 for HPAEpiC to IC50 for human A549 cells
Type: toxicity
Details: HPAEpiC cells (CC50) versus A549 cells (IC50)

Structure (SMILES)	selectivity ratio
Nc1nc2[nH]cc(CCc3ccc(C(=O)N[C@@H](CCC(=O)O)C(=O)O)cc3)c2c(=O)[nH]1 [PEMETREXED]	7.51

Tested on: SGC-7901
Test: Antiproliferative activity against human SGC7901 cells after 24 hrs by MTT assay
Type: functional, cell-based
Details: SGC-7901, 24 h

Structure (SMILES)	IC50 [µM]
Cc1ccccc1C(=O)NNC(=O)c1ccc(NS(=O)(=O)c2cnc(O)nc2O)cc1	> 20
Cc1cccc(NNC(=O)c2ccc(NS(=O)(=O)c3cnc(O)nc3O)cc2)c1	> 20
Cc1ccc(C(=O)NNC(=O)c2ccc(NS(=O)(=O)c3cnc(O)nc3O)cc2)cc1	> 20
O=C(NNc1ccc(F)cc1)c1ccccc1NS(=O)(=O)c1cnc(O)nc1O	> 20
O=C(NNC(=O)c1cccc(NS(=O)(=O)c2cnc(O)nc2O)c1)c1ccc(F)cc1	> 20
Cc1cccc(NNC(=O)c2ccccc2NS(=O)(=O)c2cnc(O)nc2O)c1	> 20
O=C(NNC(=O)c1ccc(NS(=O)(=O)c2cnc(O)nc2O)cc1)c1ccc(F)cc1	> 20
O=C(NNc1ccccc1F)c1ccc(NS(=O)(=O)c2cnc(O)nc2O)cc1	16

The remaining lines, values ahead:

IC50 [µM]	Structure (SMILES)
3.24	O=C(NNC(=O)c1ccccc1Cl)c1ccc(NS(=O)(=O)c2cnc(O)nc2O)cc1
6.89	CCCCOc1ccc(C(=O)NNC(=O)c2ccccc2NS(=O)(=O)c2cnc(O)nc2O)cc1
> 20	O=C(NNC(=O)c1ccccc1F)c1cccc(NS(=O)(=O)c2cnc(O)nc2O)c1
15.5	Cc1ccc(C(=O)NNC(=O)c2ccccc2NS(=O)(=O)c2cnc(O)nc2O)cc1
8.61	O=C(NNC(=O)c1cccc(Cl)c1)c1ccc(NS(=O)(=O)c2cnc(O)nc2O)cc1
10.8	O=C(NNc1cccc(Cl)c1)c1ccccc1NS(=O)(=O)c1cnc(O)nc1O
3.63	O=C(NNc1ccccc1Cl)c1ccc(NS(=O)(=O)c2cnc(O)nc2O)cc1
7.37	CCCCOc1ccc(C(=O)NNC(=O)c2cccc(NS(=O)(=O)c3cnc(O)nc3O)c2)cc1
9.08	Nc1nc2[nH]cc(CCc3ccc(C(=O)N[C@@H](CCC(=O)O)C(=O)O)cc3)c2c(=O)[nH]1 [PEMETREXED]
> 20	O=C(NNc1ccccc1Cl)c1ccccc1NS(=O)(=O)c1cnc(O)nc1O
> 20	O=C(NNc1ccccc1F)c1cccc(NS(=O)(=O)c2cnc(O)nc2O)c1

Tested on: A549
Test: Antiproliferative activity against human A549 cells after 24 hrs by MTT assay
Type: functional, cell-based
Details: A549, 24 h

Structure (SMILES)	IC50 [µM]
Cc1ccccc1C(=O)NNC(=O)c1ccc(NS(=O)(=O)c2cnc(O)nc2O)cc1	15.1
Cc1cccc(NNC(=O)c2ccc(NS(=O)(=O)c3cnc(O)nc3O)cc2)c1	> 20
Cc1ccc(C(=O)NNC(=O)c2ccc(NS(=O)(=O)c3cnc(O)nc3O)cc2)cc1	15.9
O=C(NNc1ccc(F)cc1)c1ccccc1NS(=O)(=O)c1cnc(O)nc1O	> 20
O=C(NNC(=O)c1cccc(NS(=O)(=O)c2cnc(O)nc2O)c1)c1ccc(F)cc1	> 20
Cc1cccc(NNC(=O)c2ccccc2NS(=O)(=O)c2cnc(O)nc2O)c1	> 20
O=C(NNC(=O)c1ccc(NS(=O)(=O)c2cnc(O)nc2O)cc1)c1ccc(F)cc1	> 20
O=C(NNc1ccccc1F)c1ccc(NS(=O)(=O)c2cnc(O)nc2O)cc1	11.7

Now from value to compound:

IC50 [µM]	Structure (SMILES)
1.9	O=C(NNC(=O)c1ccccc1Cl)c1ccc(NS(=O)(=O)c2cnc(O)nc2O)cc1
4.96	CCCCOc1ccc(C(=O)NNC(=O)c2ccccc2NS(=O)(=O)c2cnc(O)nc2O)cc1
10.8	O=C(NNC(=O)c1ccccc1F)c1cccc(NS(=O)(=O)c2cnc(O)nc2O)c1
> 20	Cc1ccc(C(=O)NNC(=O)c2ccccc2NS(=O)(=O)c2cnc(O)nc2O)cc1
2.29	O=C(NNC(=O)c1cccc(Cl)c1)c1ccc(NS(=O)(=O)c2cnc(O)nc2O)cc1
5.29	O=C(NNc1cccc(Cl)c1)c1ccccc1NS(=O)(=O)c1cnc(O)nc1O
3.34	O=C(NNc1ccccc1Cl)c1ccc(NS(=O)(=O)c2cnc(O)nc2O)cc1
7.76	CCCCOc1ccc(C(=O)NNC(=O)c2cccc(NS(=O)(=O)c3cnc(O)nc3O)c2)cc1
3.31	Nc1nc2[nH]cc(CCc3ccc(C(=O)N[C@@H](CCC(=O)O)C(=O)O)cc3)c2c(=O)[nH]1 [PEMETREXED]
5.48	O=C(NNc1ccccc1Cl)c1ccccc1NS(=O)(=O)c1cnc(O)nc1O
11.1	O=C(NNc1ccccc1F)c1cccc(NS(=O)(=O)c2cnc(O)nc2O)c1

Tested on: A549
Test: Antiproliferative activity against human A549 cells at 20 uM after 24 hrs by MTT assay relative to control
Type: functional
Details: not given

Structure (SMILES)	Activity [%]
Nc1nc2[nH]cc(CCc3ccc(C(=O)N[C@@H](CCC(=O)O)C(=O)O)cc3)c2c(=O)[nH]1 [PEMETREXED]	64.42

Tested on: not listed separately
Test: Selectivity index, ratio of CC50 for human GES1 cells to IC50 for human A549 cells
Type: toxicity
Details: GES1 cells (CC50) versus A549 cells (IC50)

Structure (SMILES)	selectivity ratio
Nc1nc2[nH]cc(CCc3ccc(C(=O)N[C@@H](CCC(=O)O)C(=O)O)cc3)c2c(=O)[nH]1 [PEMETREXED]	3.22

Tested on: MDA-MB-231
Test: Antiproliferative activity against human MDA-MB-231 cells after 24 hrs by MTT assay
Type: functional, cell-based
Details: MDA-MB-231, 24 h

Structure (SMILES)	IC50 [µM]
Cc1ccccc1C(=O)NNC(=O)c1ccc(NS(=O)(=O)c2cnc(O)nc2O)cc1	7.04
Cc1cccc(NNC(=O)c2ccc(NS(=O)(=O)c3cnc(O)nc3O)cc2)c1	> 20
Cc1ccc(C(=O)NNC(=O)c2ccc(NS(=O)(=O)c3cnc(O)nc3O)cc2)cc1	> 20
O=C(NNc1ccc(F)cc1)c1ccccc1NS(=O)(=O)c1cnc(O)nc1O	> 20
O=C(NNC(=O)c1cccc(NS(=O)(=O)c2cnc(O)nc2O)c1)c1ccc(F)cc1	> 20
Cc1cccc(NNC(=O)c2ccccc2NS(=O)(=O)c2cnc(O)nc2O)c1	> 20
O=C(NNC(=O)c1ccc(NS(=O)(=O)c2cnc(O)nc2O)cc1)c1ccc(F)cc1	> 20
O=C(NNc1ccccc1F)c1ccc(NS(=O)(=O)c2cnc(O)nc2O)cc1	> 20

Results, then the compound that gave them:

IC50 [µM]	Structure (SMILES)
13.9	O=C(NNC(=O)c1ccccc1Cl)c1ccc(NS(=O)(=O)c2cnc(O)nc2O)cc1
6.83	CCCCOc1ccc(C(=O)NNC(=O)c2ccccc2NS(=O)(=O)c2cnc(O)nc2O)cc1
> 20	O=C(NNC(=O)c1ccccc1F)c1cccc(NS(=O)(=O)c2cnc(O)nc2O)c1
> 20	Cc1ccc(C(=O)NNC(=O)c2ccccc2NS(=O)(=O)c2cnc(O)nc2O)cc1
4.16	O=C(NNC(=O)c1cccc(Cl)c1)c1ccc(NS(=O)(=O)c2cnc(O)nc2O)cc1
11.8	O=C(NNc1cccc(Cl)c1)c1ccccc1NS(=O)(=O)c1cnc(O)nc1O
4.01	O=C(NNc1ccccc1Cl)c1ccc(NS(=O)(=O)c2cnc(O)nc2O)cc1
17	CCCCOc1ccc(C(=O)NNC(=O)c2cccc(NS(=O)(=O)c3cnc(O)nc3O)c2)cc1
3.85	Nc1nc2[nH]cc(CCc3ccc(C(=O)N[C@@H](CCC(=O)O)C(=O)O)cc3)c2c(=O)[nH]1 [PEMETREXED]
18.9	O=C(NNc1ccccc1Cl)c1ccccc1NS(=O)(=O)c1cnc(O)nc1O
> 20	O=C(NNc1ccccc1F)c1cccc(NS(=O)(=O)c2cnc(O)nc2O)c1

Tested on: not listed separately
Test: Selectivity index, ratio of CC50 for human HTB125 cells to IC50 for human A549 cells
Type: toxicity
Details: HTB125 cells (CC50) versus A549 cells (IC50)

Structure (SMILES)	selectivity ratio
Nc1nc2[nH]cc(CCc3ccc(C(=O)N[C@@H](CCC(=O)O)C(=O)O)cc3)c2c(=O)[nH]1 [PEMETREXED]	6.02
